# Measured values taken from patent publication US20150105252A1, “SUBSTITUTED PYRAZOLES AS HERBICIDES” (E I DU PONT DE NEMOURS AND COMPANY, priority 2013, published 2015).
# What was measured:
# barnyardgrass [1] = test: Test A preemergence; type: in vivo, Echinochloa crus-galli; conditions: preemergence; for Barnyardgrass plant response rating (0 to 100 scale, 0 is no effect, 100 is complete control): 125 g ai/ha, visual injury approx. 10 days after treatment; for Barnyardgrass plant response rating: 500 g ai/ha, visual injury after approx. 10 days, 0 to 100 scale (0 no effect, 100 complete control)
# Outline: (§1)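 Seeds were sown in a loam soil–sand blend and given a directed soil spray preemergence; postemergence plants at 2–10 cm, one- to two-leaf stage, were sprayed with compound in non-phytotoxic solvent with surfactant. After about 10 days in a greenhouse, injury was visually rated against untreated controls (0 = no effect, 100 = complete control).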
# foxtail, giant [2] = test: Test A preemergence; type: in vivo, Setaria faberii; conditions: preemergence; for Foxtail, Giant plant response rating (0 to 100 scale): 125 g ai/ha, visual injury approx. 10 days after treatment; for Foxtail, Giant plant response rating: 500 g ai/ha, visual injury after approx. 10 days, 0 to 100 scale (0 no effect, 100 complete control)
# Outline: as §1
# corn [3] = test: Test A preemergence; type: in vivo, Zea mays; conditions: preemergence; for Corn plant response rating (0 to 100 scale): 125 g ai/ha, visual injury approx. 10 days after treatment; for Corn plant response rating: 500 g ai/ha, visual injury after approx. 10 days, 0 to 100 scale (0 no effect, 100 complete control)
# Outline: as §1
# foxtail, giant [4] = test: Test A postemergence; type: in vivo, Setaria faberii
# Outline: as §1
# morningglory = test: Test A postemergence; type: in vivo, Ipomoea spp.; conditions: Postemergence
# Outline: as §1
# wheat = test: Test A postemergence; type: in vivo, Triticum aestivum; conditions: Postemergence
# Outline: as §1
# corn [5] = test: Test C preemergence; type: in vivo, Zea mays; conditions: preemergence; for Plant response rating, Corn: 125 g ai/ha, scale 0 to 100, 0 = no effect, 100 = complete control
# Outline: (§2)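 Visual rating, 0–100 scale (0 no effect, 100 complete control), vs untreated controls after 13–15 d greenhouse. Pre: seeds in loam/sand, treated at sowing. Post: plants in peat-based mix, 1- to 4-leaf (2–18 cm). Solvent + surfactant formulation, non-phytotoxic.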
# crabgrass, large = test: Test C preemergence; type: in vivo, Digitaria sanguinalis; conditions: preemergence; for Plant response rating, Crabgrass, Large: 125 g ai/ha, scale 0 to 100, 0 = no effect, 100 = complete control
# Outline: as §2
# foxtail, giant [6] = test: Test C preemergence; type: in vivo, Setaria faberii; conditions: preemergence; for Plant response rating, Foxtail, Giant: 125 g ai/ha, scale 0 to 100, 0 = no effect, 100 = complete control
# Outline: as §2
# johnsongrass = test: Test C preemergence; type: in vivo, Sorghum halepense; conditions: preemergence; for Plant response rating, Johnsongrass: 125 g ai/ha, scale 0 to 100, 0 = no effect, 100 = complete control
# Outline: as §2
# pigweed = test: Test C preemergence; type: in vivo, Amaranthus retroflexus; conditions: preemergence; for Plant response rating, Pigweed: 125 g ai/ha, scale 0 to 100, 0 = no effect, 100 = complete control
# Outline: as §2
# soybean = test: Test C preemergence; type: in vivo, Glycine max; conditions: preemergence; for Plant response rating, Soybean: 125 g ai/ha, scale 0 to 100, 0 = no effect, 100 = complete control
# Outline: as §2
# barnyardgrass [7] = test: Test C preemergence; type: in vivo, Echinochloa crus-galli; conditions: preemergence; for Plant response rating, Barnyardgrass: 125 g ai/ha, scale 0 to 100, 0 = no effect, 100 = complete control
# Outline: as §2
# waterhemp = test: Test C preemergence; type: in vivo, Amaranthus rudis; conditions: preemergence; for Plant response rating, Waterhemp: 125 g ai/ha, scale 0 to 100, 0 = no effect, 100 = complete control
# Outline: as §2
# velvetleaf = test: Test C preemergence; type: in vivo, Abutilon theophrasti; conditions: preemergence; for Plant response rating, Velvetleaf: 125 g ai/ha, scale 0 to 100, 0 = no effect, 100 = complete control
# Outline: as §2
# [8] = Postemergence, 500 g ai/ha, 0 to 100 scale (0 no effect, 100 complete control)
# [9] = postemergence, 125 g ai/ha, about 10 days, visual rating on 0 to 100 scale (0 no effect, 100 complete control)
# [10] = 125 g ai/ha, 0 to 100 scale, 0 no effect, 100 complete control
# [11] = 500 g ai/ha, 0 to 100 scale (0 no effect, 100 complete control)
# [12] = 31 g ai/ha, visual rating, scale 0 to 100 (0 no effect, 100 complete control), 13 to 15 days
# [13] = 62 g ai/ha, scale 0 to 100 (0 no effect, 100 complete control), 13 to 15 days
# [14] = 250 g ai/ha, scale 0 to 100, 0 is no effect, 100 is complete control
structure (smiles),measurement,setting,value
Cc1cc(C(=O)NC(C)C)nn1Cc1ccnc(C(F)(F)F)c1 [Compound 197],"Barnyardgrass plant response rating (0 to 100 scale, 0 is no effect, 100 is complete control)",barnyardgrass [1],90
same,Barnyardgrass plant response rating,barnyardgrass [1],100
same,"Foxtail, Giant plant response rating (0 to 100 scale)","foxtail, giant [2]",100
same,"Foxtail, Giant plant response rating","foxtail, giant [2]",100
same,Corn plant response rating (0 to 100 scale),corn [3],0
same,Corn plant response rating,corn [3],90
same,"Foxtail, Giant plant response rating","foxtail, giant [4]; [8]",90
same,"Foxtail, Giant plant response rating","foxtail, giant [4]; [9]",80
same,Morningglory plant response rating,morningglory; [10],80
same,Morningglory plant response rating,morningglory; [11],100
same,Wheat plant response rating,wheat; [10],0
same,Wheat plant response rating,wheat; [11],60
same,Corn plant response rating,corn [5]; [12],5
same,Corn plant response rating,corn [5]; [13],5
same,"Plant response rating, Corn",corn [5]; 13 to 15 days,45
same,Corn plant response rating,corn [5]; [14],95
same,"Crabgrass, Large plant response rating","crabgrass, large; [12]",100
same,"Crabgrass, Large plant response rating","crabgrass, large; [13]",100
same,"Plant response rating, Crabgrass, Large","crabgrass, large; 13 to 15 days",100
same,"Crabgrass, Large plant response rating","crabgrass, large; [14]",100
same,"Foxtail, Giant plant response rating","foxtail, giant [6]; [12]",65
same,"Foxtail, Giant plant response rating","foxtail, giant [6]; [13]",98
same,"Plant response rating, Foxtail, Giant","foxtail, giant [6]; 13 to 15 days",100
same,"Foxtail, Giant plant response rating","foxtail, giant [6]; [14]",100
same,Johnsongrass plant response rating,johnsongrass; [12],10
same,Johnsongrass plant response rating,johnsongrass; [13],40
same,"Plant response rating, Johnsongrass",johnsongrass; 13 to 15 days,80
same,Johnsongrass plant response rating,johnsongrass; [14],85
same,Pigweed plant response rating,pigweed; [12],100
same,Pigweed plant response rating,pigweed; [13],100
same,"Plant response rating, Pigweed",pigweed; 13 to 15 days,100
same,Pigweed plant response rating,pigweed; [14],100
same,Soybean plant response rating,soybean; [12],45
same,Soybean plant response rating,soybean; [13],80
same,"Plant response rating, Soybean",soybean; 13 to 15 days,98
same,Soybean plant response rating,soybean; [14],98
same,Barnyardgrass plant response rating,barnyardgrass [7]; [12],65
same,Barnyardgrass plant response rating,barnyardgrass [7]; [13],98
same,"Plant response rating, Barnyardgrass",barnyardgrass [7]; 13 to 15 days,100
same,Barnyardgrass plant response rating,barnyardgrass [7]; [14],100
same,Waterhemp plant response rating,waterhemp; [12],100
same,Waterhemp plant response rating,waterhemp; [13],100
same,"Plant response rating, Waterhemp",waterhemp; 13 to 15 days,100
same,Waterhemp plant response rating,waterhemp; [14],100
same,Velvetleaf plant response rating,velvetleaf; [12],25
same,Velvetleaf plant response rating,velvetleaf; [13],90
same,"Plant response rating, Velvetleaf",velvetleaf; 13 to 15 days,65
same,Velvetleaf plant response rating,velvetleaf; [14],100
CCCNC(=O)c1cc(CCC)n(Cc2cc(C(F)(F)F)nn2C)n1 [Compound 198],"Barnyardgrass plant response rating (0 to 100 scale, 0 is no effect, 100 is complete control)",barnyardgrass [1],100
same,Barnyardgrass plant response rating,barnyardgrass [1],100
same,"Foxtail, Giant plant response rating (0 to 100 scale)","foxtail, giant [2]",100
same,"Foxtail, Giant plant response rating","foxtail, giant [2]",90
same,Corn plant response rating (0 to 100 scale),corn [3],0
same,Corn plant response rating,corn [3],90
same,"Foxtail, Giant plant response rating","foxtail, giant [4]; [8]",100
same,"Foxtail, Giant plant response rating","foxtail, giant [4]; [9]",90
same,Morningglory plant response rating,morningglory; [10],80
same,Morningglory plant response rating,morningglory; [11],100
same,Wheat plant response rating,wheat; [10],60
same,Wheat plant response rating,wheat; [11],90
same,Corn plant response rating,corn [5]; [12],5
same,Corn plant response rating,corn [5]; [13],55
same,"Plant response rating, Corn",corn [5]; 13 to 15 days,85
same,Corn plant response rating,corn [5]; [14],98
same,"Crabgrass, Large plant response rating","crabgrass, large; [12]",98
same,"Crabgrass, Large plant response rating","crabgrass, large; [13]",100
same,"Plant response rating, Crabgrass, Large","crabgrass, large; 13 to 15 days",100
same,"Crabgrass, Large plant response rating","crabgrass, large; [14]",100
same,"Foxtail, Giant plant response rating","foxtail, giant [6]; [12]",98
same,"Foxtail, Giant plant response rating","foxtail, giant [6]; [13]",100
same,"Plant response rating, Foxtail, Giant","foxtail, giant [6]; 13 to 15 days",100
same,"Foxtail, Giant plant response rating","foxtail, giant [6]; [14]",100
same,Johnsongrass plant response rating,johnsongrass; [12],25
same,Johnsongrass plant response rating,johnsongrass; [13],80
same,"Plant response rating, Johnsongrass",johnsongrass; 13 to 15 days,100
same,Johnsongrass plant response rating,johnsongrass; [14],100
same,Pigweed plant response rating,pigweed; [12],100
same,Pigweed plant response rating,pigweed; [13],100
same,"Plant response rating, Pigweed",pigweed; 13 to 15 days,100
same,Pigweed plant response rating,pigweed; [14],100
same,Soybean plant response rating,soybean; [12],75
same,Soybean plant response rating,soybean; [13],90
same,"Plant response rating, Soybean",soybean; 13 to 15 days,98
same,Soybean plant response rating,soybean; [14],98
same,Barnyardgrass plant response rating,barnyardgrass [7]; [12],100
same,Barnyardgrass plant response rating,barnyardgrass [7]; [13],100
same,"Plant response rating, Barnyardgrass",barnyardgrass [7]; 13 to 15 days,100
same,Barnyardgrass plant response rating,barnyardgrass [7]; [14],100
same,Waterhemp plant response rating,waterhemp; [12],98
same,Waterhemp plant response rating,waterhemp; [13],98
same,"Plant response rating, Waterhemp",waterhemp; 13 to 15 days,100
same,Waterhemp plant response rating,waterhemp; [14],100
same,Velvetleaf plant response rating,velvetleaf; [12],35
same,Velvetleaf plant response rating,velvetleaf; [13],85
same,"Plant response rating, Velvetleaf",velvetleaf; 13 to 15 days,100
same,Velvetleaf plant response rating,velvetleaf; [14],100
